Patent US20230085307A1, “PYRIDAZINONE COMPOUND AND HERBICIDE” (NISSAN CHEMICAL CORPORATION, priority 2019, published 2023)

Experiments:
[1] = tested on: southern crabgrass; test: Test Example 5: herbicidal effect by foliage application, plastic box (Table 20, symbol F); format: in vivo, southern crabgrass (Digitaria ciliaris); details: foliage application, 320 g/ha, three weeks after application
In short: (§1)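 Plants were sown into sterilized diluvial soil under about 1.5 cm cover and kept in a greenhouse at 25° C. to 30° C. Fourteen days on, foliage received an even spray of the diluted emulsion. Herbicidal or crop effect was judged three weeks afterwards.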

[2] = tested on: windgrass; test: Test Example 4: herbicidal effect by soil treatment (Table 19, symbol L); format: in vivo, windgrass (Apera spica-venti); details: amount of applied herbicide 320 g/ha
In short: (§2)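 In this soil treatment, the formulated compound reached the seeds only through the soil: seeds were buried about 1.5 cm deep in sterilized diluvial soil, then the diluted emulsion was sprayed over the surface. After three weeks at 25° C. to 30° C. in a greenhouse, effects were graded on criteria from an earlier test.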

[3] = tested on: southern crabgrass; test: Test Example 4: herbicidal effect by soil treatment (Table 19, symbol F); format: in vivo, southern crabgrass (Digitaria ciliaris); details: amount of applied herbicide 320 g/ha
In short: as §2

[4] = tested on: rice flat sedge; test: Test Example 3: herbicidal effect by foliage application, Wagner pot (Table 18, symbol E); format: in vivo, rice flat sedge (Cyperus iria)
In short: (§3)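 Plants were sown in alluvial soil held under 0.1–0.5 cm standing water and grown 14 days in a greenhouse at 25–30 °C. An emulsifiable formulation, water-diluted to the set dose, was then sprayed onto the foliage, and effects were scored three weeks later using previously defined criteria.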

[5] = tested on: barnyard grass; test: Test Example 4: herbicidal effect by soil treatment (Table 19, symbol H); format: in vivo, barnyard grass (Echinochloa crus-galli); details: amount of applied herbicide 320 g/ha
In short: as §2

[6] = tested on: blackgrass; test: Test Example 5: herbicidal effect by foliage application, plastic box (Table 20, symbol J); format: in vivo, blackgrass (Alopecurus myosuroides); details: foliage application, 320 g/ha, three weeks after application
In short: as §1

[7] = tested on: blackgrass; test: Test Example 4: herbicidal effect by soil treatment (Table 19, symbol J); format: in vivo, blackgrass (Alopecurus myosuroides); details: amount of applied herbicide 320 g/ha
In short: as §2

[8] = tested on: velvetleaf; test: Test Example 4: herbicidal effect by soil treatment (Table 19, symbol M); format: in vivo, velvetleaf (Abutilon theophrasti); details: amount of applied herbicide 320 g/ha
In short: as §2

[9] = tested on: persian speedwell; test: Test Example 4: herbicidal effect by soil treatment (Table 19, symbol R); format: in vivo, Persian speedwell (Veronica persica); details: amount of applied herbicide 320 g/ha
In short: as §2

[10] = tested on: wild oat; test: Test Example 4: herbicidal effect by soil treatment (Table 19, symbol I); format: in vivo, wild oat (Avena fatua); details: amount of applied herbicide 320 g/ha
In short: as §2

[11] = tested on: velvetleaf; test: Test Example 5: herbicidal effect by foliage application, plastic box (Table 20, symbol M); format: in vivo, velvetleaf (Abutilon theophrasti); details: foliage application, 320 g/ha, three weeks after application
In short: as §1

[12] = tested on: false cleavers; test: Test Example 4: herbicidal effect by soil treatment (Table 19, symbol Q); format: in vivo, false cleavers (Galium spurium); details: amount of applied herbicide 320 g/ha
In short: as §2

[13] = tested on: Italian ryegrass; test: Test Example 5: herbicidal effect by foliage application, plastic box (Table 20, symbol K); format: in vivo, Italian ryegrass (Lolium multiflorum); details: foliage application, 320 g/ha, three weeks after application
In short: as §1

[14] = tested on: barnyard grass; test: Test Example 3: herbicidal effect by foliage application, Wagner pot (Table 18, symbol H); format: in vivo, barnyard grass (Echinochloa crus-galli)
In short: as §3

[15] = tested on: Chinese sprangletop; test: Test Example 3: herbicidal effect by foliage application, Wagner pot (Table 18, symbol D); format: in vivo, chinese sprangletop (Leptochloa chinensis)
In short: as §3

[16] = tested on: lambsquarters; test: Test Example 5: herbicidal effect by foliage application, plastic box (Table 20, symbol O); format: in vivo, lambsquarters (Chenopodium album); details: foliage application, 320 g/ha, three weeks after application
In short: as §1

[17] = tested on: Japanese bulrush; test: Test Example 1: herbicidal activity, application before weed generation under submerged conditions (Table 16, symbol B); format: in vivo, Japanese bulrush (Schoenoplectus juncoides); details: amount of applied herbicide 320 g/ha
In short: (§4)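 Alluvial soil was flooded to 4 cm depth, weed seeds were sown mixed and 2.5-leaf rice seedlings were transplanted. On sowing day, the compound's emulsion, diluted in water to a set dose, was applied to the water surface. Plants grew at 25–30 °C and were scored 0–5 after three weeks.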

[18] = tested on: lambsquarters; test: Test Example 4: herbicidal effect by soil treatment (Table 19, symbol O); format: in vivo, lambsquarters (Chenopodium album); details: amount of applied herbicide 320 g/ha
In short: as §2

[19] = tested on: Italian ryegrass; test: Test Example 4: herbicidal effect by soil treatment (Table 19, symbol K); format: in vivo, Italian ryegrass (Lolium multiflorum); details: amount of applied herbicide 320 g/ha
In short: as §2

[20] = tested on: green foxtail; test: Test Example 4: herbicidal effect by soil treatment (Table 19, symbol G); format: in vivo, green foxtail (Setaria viridis); details: amount of applied herbicide 320 g/ha
In short: as §2

[21] = tested on: wild oat; test: Test Example 5: herbicidal effect by foliage application, plastic box (Table 20, symbol I); format: in vivo, wild oat (Avena fatua); details: foliage application, 320 g/ha, three weeks after application
In short: as §1

[22] = tested on: late watergrass; test: Test Example 1: herbicidal activity, application before weed generation under submerged conditions (Table 16, symbol A); format: in vivo, late watergrass (Echinochloa oryzicola); details: amount of applied herbicide 320 g/ha
In short: as §4

[23] = tested on: windgrass; test: Test Example 5: herbicidal effect by foliage application, plastic box (Table 20, symbol L); format: in vivo, windgrass (Apera spica-venti); details: foliage application, 320 g/ha, three weeks after application
In short: as §1

[24] = tested on: green foxtail; test: Test Example 5: herbicidal effect by foliage application, plastic box (Table 20, symbol G); format: in vivo, green foxtail (Setaria viridis); details: foliage application, 320 g/ha, three weeks after application
In short: as §1

[25] = tested on: oval-leafed pondweed; test: Test Example 1: herbicidal activity, application before weed generation under submerged conditions (Table 16, symbol C); format: in vivo, oval-leafed pondweed (Monochoria vaginalis); details: amount of applied herbicide 320 g/ha
In short: as §4

[26] = tested on: chickweed; test: Test Example 4: herbicidal effect by soil treatment (Table 19, symbol P); format: in vivo, common chickweed (Stellaria media); details: amount of applied herbicide 320 g/ha
In short: as §2

[27] = tested on: persian speedwell; test: Test Example 5: herbicidal effect by foliage application, plastic box (Table 20, symbol R); format: in vivo, Persian speedwell (Veronica persica); details: foliage application, 320 g/ha, three weeks after application
In short: as §1

[28] = tested on: redroot pigweed; test: Test Example 4: herbicidal effect by soil treatment (Table 19, symbol N); format: in vivo, redroot pigweed (Amaranthus retroflexus); details: amount of applied herbicide 320 g/ha
In short: as §2

[29] = tested on: barnyard grass; test: Test Example 5: herbicidal effect by foliage application, plastic box (Table 20, symbol H); format: in vivo, barnyard grass (Echinochloa crus-galli); details: foliage application, 320 g/ha, three weeks after application
In short: as §1

[30] = amount of applied herbicide 320 g/ha

CCCC(=O)Oc1c(C)nn(C)c(=O)c1-c1c(-c2ccc(F)cc2OC)sc2cc(OC)c(OC)cc12 [5-061]
herbicidal effect on southern crabgrass (F) [1]: 4 (Herbicidal rate of 70% or more and less than 90%)
L: windgrass, herbicidal effect grade [2]: 0 (Herbicidal rate of 5% or less (almost no effect))
F: southern crabgrass, herbicidal effect grade [3]: 0 (Herbicidal rate of 5% or less (almost no effect))
herbicidal effect on rice flat sedge (E) ([4]; 320 g/ha): 4 (Herbicidal rate of 70% or more and less than 90%)
H: barnyard grass, herbicidal effect grade [5]: 0 (Herbicidal rate of 5% or less (almost no effect))
herbicidal effect on blackgrass (J) [6]: 4 (Herbicidal rate of 70% or more and less than 90%)
J: blackgrass, herbicidal effect grade [7]: 0 (Herbicidal rate of 5% or less (almost no effect))
M: velvetleaf, herbicidal effect grade [8]: 0 (Herbicidal rate of 5% or less (almost no effect))
R: persian speedwell, herbicidal effect grade [9]: 2 (Herbicidal rate of 20% or more and less than 40%)
I: wild oat, herbicidal effect grade [10]: 0 (Herbicidal rate of 5% or less (almost no effect))
herbicidal effect on velvetleaf (M) [11]: 0 (Herbicidal rate of 5% or less (almost no effect))
Q: false cleavers, herbicidal effect grade [12]: 0 (Herbicidal rate of 5% or less (almost no effect))
herbicidal effect on Italian ryegrass (K) [13]: 4 (Herbicidal rate of 70% or more and less than 90%)
herbicidal effect on barnyard grass (H) ([14]; 320 g/ha): 5 (Herbicidal rate of 90% or more (almost completely withered))
herbicidal effect on Chinese sprangletop (D) ([15]; 320 g/ha): 3 (Herbicidal rate of 40% or more and less than 70%)
herbicidal effect on lambsquarters (O) [16]: 3 (Herbicidal rate of 40% or more and less than 70%)
Herbicidal effect, B: Japanese bulrush [17]: 3 (Herbicidal rate of 40% or more and less than 70%)
O: lambsquarters, herbicidal effect grade [18]: 0 (Herbicidal rate of 5% or less (almost no effect))
K: Italian ryegrass, herbicidal effect grade [19]: 0 (Herbicidal rate of 5% or less (almost no effect))
G: green foxtail, herbicidal effect grade [20]: 0 (Herbicidal rate of 5% or less (almost no effect))
herbicidal effect on wild oat (I) [21]: 4 (Herbicidal rate of 70% or more and less than 90%)
Herbicidal effect, A: late watergrass [22]: 5 (Herbicidal rate of 90% or more (almost completely withered))
herbicidal effect on windgrass (L) [23]: 2 (Herbicidal rate of 20% or more and less than 40%)
herbicidal effect on green foxtail (G) [24]: 4 (Herbicidal rate of 70% or more and less than 90%)
Herbicidal effect, C: oval-leafed pondweed [25]: 3 (Herbicidal rate of 40% or more and less than 70%)
P: chickweed, herbicidal effect grade [26]: 3 (Herbicidal rate of 40% or more and less than 70%)
herbicidal effect on persian speedwell (R) [27]: 5 (Herbicidal rate of 90% or more (almost completely withered))
N: redroot pigweed, herbicidal effect grade [28]: 0 (Herbicidal rate of 5% or less (almost no effect))
herbicidal effect on barnyard grass (H) [29]: 4 (Herbicidal rate of 70% or more and less than 90%)

Cc1nn(C)c(=O)c(-c2c(-c3ccc(OC(F)F)cc3)oc3ccc(F)cc23)c1O [9-031]
herbicidal effect on southern crabgrass (F) [1]: 4 (Herbicidal rate of 70% or more and less than 90%)
L: windgrass, herbicidal effect grade [2]: 4 (Herbicidal rate of 70% or more and less than 90%)
F: southern crabgrass, herbicidal effect grade [3]: 4 (Herbicidal rate of 70% or more and less than 90%)
Herbicidal effect on E (rice flat sedge), foliage application [4, 30]: 5 (Herbicidal rate of 90% or more (almost completely withered))
H: barnyard grass, herbicidal effect grade [5]: 4 (Herbicidal rate of 70% or more and less than 90%)
herbicidal effect on blackgrass (J) [6]: 4 (Herbicidal rate of 70% or more and less than 90%)
J: blackgrass, herbicidal effect grade [7]: 0 (Herbicidal rate of 5% or less (almost no effect))
M: velvetleaf, herbicidal effect grade [8]: 2 (Herbicidal rate of 20% or more and less than 40%)
R: persian speedwell, herbicidal effect grade [9]: 5 (Herbicidal rate of 90% or more (almost completely withered))
I: wild oat, herbicidal effect grade [10]: 0 (Herbicidal rate of 5% or less (almost no effect))
herbicidal effect on velvetleaf (M) [11]: 5 (Herbicidal rate of 90% or more (almost completely withered))
Q: false cleavers, herbicidal effect grade [12]: 3 (Herbicidal rate of 40% or more and less than 70%)
herbicidal effect on Italian ryegrass (K) [13]: 5 (Herbicidal rate of 90% or more (almost completely withered))
Herbicidal effect on H (barnyard grass), foliage application [14, 30]: 5 (Herbicidal rate of 90% or more (almost completely withered))
Herbicidal effect on D (Chinese sprangletop), foliage application [15, 30]: 1 (Herbicidal rate of 5% or more and less than 20%)
herbicidal effect on lambsquarters (O) [16]: 5 (Herbicidal rate of 90% or more (almost completely withered))
Herbicidal effect, B: Japanese bulrush [17]: 0 (Herbicidal rate of 5% or less (almost no effect))
O: lambsquarters, herbicidal effect grade [18]: 3 (Herbicidal rate of 40% or more and less than 70%)
K: Italian ryegrass, herbicidal effect grade [19]: 5 (Herbicidal rate of 90% or more (almost completely withered))
G: green foxtail, herbicidal effect grade [20]: 4 (Herbicidal rate of 70% or more and less than 90%)
herbicidal effect on wild oat (I) [21]: 4 (Herbicidal rate of 70% or more and less than 90%)
Herbicidal effect, A: late watergrass [22]: 2 (Herbicidal rate of 20% or more and less than 40%)
herbicidal effect on windgrass (L) [23]: 4 (Herbicidal rate of 70% or more and less than 90%)
herbicidal effect on green foxtail (G) [24]: 5 (Herbicidal rate of 90% or more (almost completely withered))
Herbicidal effect, C: oval-leafed pondweed [25]: 0 (Herbicidal rate of 5% or less (almost no effect))
P: chickweed, herbicidal effect grade [26]: 4 (Herbicidal rate of 70% or more and less than 90%)
herbicidal effect on persian speedwell (R) [27]: 5 (Herbicidal rate of 90% or more (almost completely withered))
N: redroot pigweed, herbicidal effect grade [28]: 5 (Herbicidal rate of 90% or more (almost completely withered))
herbicidal effect on barnyard grass (H) [29]: 4 (Herbicidal rate of 70% or more and less than 90%)
